Assay results reported in PubChem BioAssay AID651801 (Broad Institute, 2012).
Active and inactive are the calls of the source.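 How the source made its calls: active means signal falling with dose and AC50 at most twice the top valid tested dose; inconclusive means flat fit with inhibition of 30 to 70%, or poor fit; inactive means the rest, plus effects in the rising direction.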

molecular target: Kelch-like ECH-associated protein 1 (Homo sapiens) (UniProt Q14145); test: disruptors of Keap1 Kelch-Nrf2 peptide binding – biochemical, fluorescence polarization, dry powder, set 2, dose response (AID 651801); details: Keap1 Kelch/FITC-Nrf2 peptide fluorescence polarization
Sequence (Q14145 whole entry, looked up): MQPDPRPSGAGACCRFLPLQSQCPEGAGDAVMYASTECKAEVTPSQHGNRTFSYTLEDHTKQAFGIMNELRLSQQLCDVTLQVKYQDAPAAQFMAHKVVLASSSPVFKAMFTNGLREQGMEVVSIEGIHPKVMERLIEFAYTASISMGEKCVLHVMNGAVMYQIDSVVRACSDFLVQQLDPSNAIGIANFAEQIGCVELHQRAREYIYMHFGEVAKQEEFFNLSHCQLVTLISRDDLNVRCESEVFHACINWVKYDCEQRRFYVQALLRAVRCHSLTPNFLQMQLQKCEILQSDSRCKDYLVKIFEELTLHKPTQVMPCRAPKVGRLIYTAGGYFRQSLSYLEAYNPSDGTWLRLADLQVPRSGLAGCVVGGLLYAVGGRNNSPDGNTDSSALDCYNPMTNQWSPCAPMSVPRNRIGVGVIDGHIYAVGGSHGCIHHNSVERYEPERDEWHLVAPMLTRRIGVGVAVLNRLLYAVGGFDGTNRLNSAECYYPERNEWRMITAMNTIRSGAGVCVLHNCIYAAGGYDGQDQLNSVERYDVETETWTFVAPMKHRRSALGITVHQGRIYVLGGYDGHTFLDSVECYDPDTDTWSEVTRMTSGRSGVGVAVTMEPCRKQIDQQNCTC

Structure (SMILES)	AC50
O=C(O)C1CCCCC1C(=O)N1CCc2ccccc2C1CN1C(=O)[C@H]2CCCC[C@H]2C1=O (stereo partly drawn)	> 100 µM (inactive)
O=C(O)C1CCCCC1C(=O)N1CCc2ccccc2C1CN1Cc2ccccc2C1=O (stereo not drawn)	23.6 µM
Cc1ccc(S(=O)(=O)NC(=O)[C@@H]2c3ccccc3CCN2C(=O)[C@@H]2CCCC[C@@H]2C(=O)O)cc1	> 100 µM (inactive)
Cc1ccccc1S(=O)(=O)Nc1cc(C(C(=O)OC(C)C)C(=O)C(F)(F)F)c(O)c2ccccc12 (stereo not drawn)	3.56 µM
O=C(O)C1CCCCC1C(=O)N1CCc2ccccc2C1CN1C(=O)Cc2ccccc2C1=O (stereo not drawn)	> 100 µM (inactive)
Cc1cc(C)c(S(=O)(=O)Nc2cc(C(C(=O)OC(C)C)C(=O)C(F)(F)F)c(O)c3ccccc23)c(C)c1 (stereo not drawn)	0.798 µM
CC(C)OC(=O)C(C(=O)C(F)(F)F)c1cc(NS(=O)(=O)c2ccccc2)c2ccccc2c1O (stereo not drawn)	30 µM
COC(=O)C(C(=O)OC)c1cc(NS(=O)(=O)c2c(C)cc(C)cc2C)c2ccccc2c1O	39.5 µM
NC(=O)c1ccccc1C(=O)NC[C@@H]1c2ccccc2CCN1C(=O)[C@@H]1CCCC[C@@H]1C(=O)O	> 100 µM (inactive)
O=C(O)[C@H]1CCCC[C@H]1C(=O)N1CCC2=C(CCCC2)C1CN1C(=O)c2ccccc2C1=O (stereo partly drawn)	> 100 µM (inactive)
Cc1ccc(S(=O)(=O)Nc2cc(C(C(=O)OC(C)C)C(=O)C(F)(F)F)c(O)c3ccccc23)c(C)c1 (stereo not drawn)	2.43 µM
O=C(NCCc1ccccc1)c1ccccc1C(=O)NC[C@@H]1c2ccccc2CCN1C(=O)C1CCCCC1C(=O)O (stereo partly drawn)	> 100 µM (inactive)
O=C(NCCO)c1ccccc1C(=O)NC[C@@H]1c2ccccc2CCN1C(=O)C1CCCCC1C(=O)O (stereo partly drawn)	> 100 µM (inactive)
O=C(O)Cc1ccccc1C(=O)N1CCc2ccccc2[C@H]1CN1C(=O)c2ccccc2C1=O	23.6 µM
Cc1ccc(S(=O)(=O)Nc2cc(C(C(=O)OC(C)C)C(=O)C(F)(F)F)c(O)c3ccccc23)cc1 (stereo not drawn)	7.4 µM
O=C(O)[C@H]1C2C=CC(C2)[C@H]1C(=O)N1CCc2ccccc2C1CN1C(=O)c2ccccc2C1=O (stereo partly drawn)	> 100 µM (inactive)
O=C(NC[C@@H]1c2ccccc2CCN1C(=O)[C@@H]1CCCC[C@@H]1C(=O)O)c1ccc(CN2CCOCC2)cc1	> 100 µM (inactive)
CC(=O)Nc1cc(NS(=O)(=O)c2c(C)cc(C)cc2C)c2ccccc2c1O	9.18 µM

same assay, conditions: Keap1 Kelch/FITC-Nrf2 peptide fluorescence polarization; at 12 µM (top of the series)

Structure (SMILES)	activity change, negative = inhibition
O=C1c2ccccc2C(=O)N1CC1c2ccccc2CCN1C(=O)Cc1ccccc1 (stereo not drawn)	inactive

same assay, conditions: Keap1 Kelch/FITC-Nrf2 peptide fluorescence polarization; at 50 µM (top of the series)

Structure (SMILES)	activity change, negative = inhibition
O=C(NC[C@@H]1c2ccccc2CCN1C(=O)[C@@H]1CCCC[C@@H]1C(=O)O)c1ccccc1CO	inactive
CCOC(=O)Cc1nc(NS(=O)(=O)c2c(C)cc(C)cc2C)c2ccccc2n1	inactive
O=C(O)/C=C\C(=O)N1CCc2ccccc2C1CN1C(=O)c2ccccc2C1=O (stereo not drawn)	inactive
O=C(O)[C@H]1CCCC[C@H]1C(=O)N1CCc2ccccc2[C@H]1CNS(=O)(=O)c1ccc([N+](=O)[O-])cc1	inactive
Cc1cc(C)c(S(=O)(=O)Nc2nc(C(C(=O)OC(C)C)C(=O)C(F)(F)F)nc3ccccc23)c(C)c1 (stereo not drawn)	inactive
COC(=O)[C@@H]1CCCC[C@@H]1C(=O)N1CCc2ccccc2[C@@H]1CN1C(=O)c2ccccc2C1=O	inactive
O=C(NC[C@@H]1c2ccccc2CCN1C(=O)[C@@H]1CCCC[C@@H]1C(=O)O)c1ccc(CCl)cc1	inactive
Cc1ccc(S(=O)(=O)NC[C@@H]2c3ccccc3CCN2C(=O)[C@@H]2CCCC[C@@H]2C(=O)O)c(C)c1	inactive
O=C1c2ccccc2C(=O)N1C[C@@H]1c2ccccc2CCN1C(=O)C1CCCCC1	inactive
Cc1ccc(S(=O)(=O)NC(=O)[C@@H]2c3ccccc3CCN2C(=O)[C@@H]2CCCC[C@@H]2C(=O)O)cc1	inactive
O=C(O)CC(=O)N1CCc2ccccc2C1CN1C(=O)c2ccccc2C1=O (stereo not drawn)	inactive
Cc1ccc(S(=O)(=O)NC2=CC(=N[C@@H](C)C(=O)OC(C)(C)C)C(=O)c3ccccc32)c(C)c1	inactive
O=C(O)C1CCCCC1C(=O)N1CCCCC1CN1C(=O)c2ccccc2C1=O (stereo not drawn)	inactive
C[C@@H](NC(=O)C1CCCC[C@H]1C(=O)O)c1ccccc1 (mixture of isomers)	inactive
O=C(O)C1CCCCC1C(=O)NCC1c2ccccc2CCN1C(=O)Cc1ccccc1 (stereo not drawn)	inactive
CCOC(=O)C(C(=O)OCC)c1cc(CNS(=O)(=O)c2ccc(C)cc2C)c2ccccc2n1	inactive
O=C(O)[C@H]1CCCC[C@H]1C(=O)N1CCc2ccccc2[C@H]1CNS(=O)(=O)c1ccccc1	inactive
C=CC(=O)NC[C@@H]1c2ccccc2CCN1C(=O)[C@@H]1CCCC[C@@H]1C(=O)O	inactive
NC(=O)[C@H]1CCCC[C@H]1C(=O)N1CCc2ccccc2[C@H]1CN1C(=O)c2ccccc2C1=O	inactive
O=C(Oc1cc(CN2C(=O)c3ccccc3C2=O)c2ccccc2[n+]1[O-])c1cccc(Cl)c1	inactive

Structure (SMILES)	activity change, negative = inhibition
O=C(O)CCC(=O)N1CCc2ccccc2C1CN1C(=O)c2ccccc2C1=O (stereo not drawn)	inactive
CCOC(=O)C(C(=O)OCC)c1cc(CN2C(=O)c3ccccc3C2=O)c2ccccc2n1	inactive
O=C(O)c1ccccc1C(=O)NC[C@@H]1c2ccccc2CCN1C(=O)[C@@H]1CCCC[C@@H]1C(=O)O	inactive
Cc1cc(C)c(S(=O)(=O)Nc2nc(N(C)C)nc3ccccc23)c(C)c1	inactive
O=C(NC[C@@H]1c2ccccc2CCN1C(=O)[C@@H]1CCCC[C@@H]1C(=O)O)OCC1c2ccccc2-c2ccccc21	inactive
O=C(O)[C@H]1CCCC[C@H]1C(=O)N1CCc2ccccc2C1CCN1C(=O)c2ccccc2C1=O (stereo partly drawn)	inactive
COc1ccccc1CCNC(=O)[C@@H]1c2ccccc2CCN1C(=O)C1CCCCC1C(=O)O (stereo partly drawn)	inactive
COC(=O)C1CCCCC1C(=O)N1CCc2ccccc2C1CN1C(=O)c2ccccc2C1=O (stereo not drawn)	inactive
Cc1cc(C)c(S(=O)(=O)Nc2cc(C(C(=O)OCc3ccccc3)C(=O)OCc3ccccc3)c(O)c3ccccc23)c(C)c1	inactive
Cc1cc(C)c(S(=O)(=O)Nc2nc(NCCO)nc3ccccc23)c(C)c1	inactive
O=C(NC[C@@H]1c2ccccc2CCN1C(=O)[C@@H]1CCCC[C@@H]1C(=O)O)c1ccccc1	inactive
O=S(=O)(Nc1nc(NCC2CCCCC2)nc2ccccc12)c1ccccc1	inactive
COC(=O)CNc1nc(NS(=O)(=O)c2c(C)cc(C)cc2C)c2ccccc2n1	inactive
C[C@H](NC(=O)C1CCCC[C@H]1C(=O)O)c1ccccc1 (mixture of isomers)	inactive
Cc1cc(C)c(S(=O)(=O)Nc2ncnc3ccccc23)c(C)c1	inactive
O=C1c2ccccc2C(=O)N1C[C@@H]1c2ccccc2CCN1C(=O)OCc1ccccc1	inactive
O=C(O)C1CCCCC1C(=O)N1CCc2ccccc2[C@H]1C(=O)NC12CC3CC(CC(C3)C1)C2 (stereo partly drawn)	inactive
COC(=O)[C@H]1CCCC[C@H]1C(=O)N1CCc2ccccc2[C@H]1CN1C(=O)c2ccccc2C1=O	inactive
O=C(O)c1ccccc1C(=O)N1CCc2ccccc2C1CN1C(=O)c2ccccc2C1=O (stereo not drawn)	inactive
O=C(O)[C@H]1CCCC[C@H]1C(=O)N1CCC2=C(CCCC2)C1CN1C(=O)c2ccccc2C1=O (stereo partly drawn)	inactive

Structure (SMILES)	activity change, negative = inhibition
O=C(O)[C@H]1CCCC[C@H]1C(=O)N1CCc2ccccc2C1 (racemic)	inactive
O=C(O)[C@H]1CCCC[C@H]1C(=O)N1CCc2ccccc2[C@H]1CNc1nc(Cl)nc2ccccc12	inactive
O=C1c2ccccc2C(=O)N1C[C@H]1NCCc2ccccc21	inactive
COc1ccc(CCN=C2C=C(NS(=O)(=O)c3c(C)cc(C)cc3C)c3ccccc3C2=O)cc1	inactive
O=C(O)CCCC(=O)N1CCc2ccccc2C1CN1C(=O)c2ccccc2C1=O (stereo not drawn)	inactive
Cc1ccc(S(=O)(=O)NNc2nc(N3CC(O)CC3C(=O)O)nc3ccccc23)cc1 (stereo not drawn)	inactive
CCOC(=O)C(C(=O)OCC)c1nc(NS(=O)(=O)c2c(C)cc(C)cc2C)c2ccccc2n1	inactive
Cc1ccc(S(=O)(=O)NNc2nc(NCC(N)=O)nc3ccccc23)cc1	inactive
O=C(O)[C@H]1CCCC[C@H]1C(=O)NC(CN1C(=O)c2ccccc2C1=O)c1ccccc1 (stereo partly drawn)	inactive
O=C(NCCCN1CCOCC1)c1ccccc1C(=O)NC[C@@H]1c2ccccc2CCN1C(=O)C1CCCCC1C(=O)O (stereo partly drawn)	inactive
COC(=O)[C@@H]1CCCC[C@@H]1C(=O)N1CCc2ccccc2[C@H]1CN1C(=O)c2ccccc2C1=O	inactive
O=C(O)C1CCCCC1C(=O)Nc1ccccc1CN1C(=O)c2ccccc2C1=O (stereo not drawn)	inactive
CC(C)CNc1nc(NS(=O)(=O)c2ccccc2)c2ccccc2n1	inactive
O=C(Cc1ccccc1)NC[C@@H]1c2ccccc2CCN1C(=O)[C@@H]1CCCC[C@@H]1C(=O)O	inactive
O=C1c2ccccc2C(=O)N1CC1=NCCc2ccccc21	inactive
Cc1ccc(S(=O)(=O)NNc2nc(C(C(=O)OC(C)C)C(=O)C(F)(F)F)nc3ccccc23)cc1 (stereo not drawn)	inactive
O=C(O)C1CCCCC1C(=O)N1CCc2ccccc2[C@H]1C(=O)NCCc1ccccc1 (stereo partly drawn)	inactive
O=C(O)[C@@H]1CCCN1C(=O)N1CCc2ccccc2[C@H]1CN1C(=O)c2ccccc2C1=O	inactive
O=C(O)C1CCCCC1C(=O)N1CCc2ccccc2C1c1ccccc1 (stereo not drawn)	inactive
